Laboratory results as given in paper PMC7993727, “Discovery of a novel AR/HDAC6 dual inhibitor for prostate cancer treatment” (Aging (Albany NY), 2021).

How the values were obtained:
[1] = parameters: method as in PMID 27590197; conditions: rats; cited from earlier work
TMPRSS2 = TMPRSS2 mRNA (qRT-PCR) and protein (Western blot) expression in VCaP cells; assay type: cell-based; conditions: 10 nM DHT, 24 hours
Protocol: (§1) RNA expression level was analyzed by qRT-PCR and protein expression level was analyzed by Western blot. […] (I) Representative immunofluorescence microscopic images of VCaP cells for checking the subcellular localization of AR.
(§2) The RNA of VCaP cells was extracted using a Simply P Total RNA Extraction kit (Bioer technology) and cDNA was synthesized using a SMARTer PCR cDNA Synthesis Kit (Clontech). PSA and β-actin primers were synthesized by Sangon Biotech according to previous literature. Real-time PCR was performed using the PowerUp SYBR™ Green kit (ThermoFisher). The PCR program was run on a LightCycler 480II (Roche) and set as follows: 2 minutes at 95° C followed by 40 cycles of 30 seconds at 95° C, 15 seconds at 60° C and 30 seconds at 72° C. Data were quantified using the 2-ΔΔCt method based on the Ct values of PSA and β-actin from two parallel experiments performed in triplicate.
(§3) The whole-cell extracts were prepared in lysis buffer with a protease inhibitor cocktail (Bimake), while the xenograft tissue extracts were prepared in 0.5% Nonidet P 40 Substitute solution (Biosharp) with cocktail protease inhibitor (Bimake). Each sample containing 30 μg of total protein was loaded onto 10% SDS-PAGE and electrotransferred onto polyvinylidene fluoride membranes. […]

HDAC6 = biological target: T1, HDAC6 (Homo sapiens, UniProt Q9UBN7); assay: acetylation of α-tubulin (HDAC6 substrate) in VCaP cells, Western blot; assay type: cell-based; conditions: 24 hours
T1 sequence (Q9UBN7 1-1215): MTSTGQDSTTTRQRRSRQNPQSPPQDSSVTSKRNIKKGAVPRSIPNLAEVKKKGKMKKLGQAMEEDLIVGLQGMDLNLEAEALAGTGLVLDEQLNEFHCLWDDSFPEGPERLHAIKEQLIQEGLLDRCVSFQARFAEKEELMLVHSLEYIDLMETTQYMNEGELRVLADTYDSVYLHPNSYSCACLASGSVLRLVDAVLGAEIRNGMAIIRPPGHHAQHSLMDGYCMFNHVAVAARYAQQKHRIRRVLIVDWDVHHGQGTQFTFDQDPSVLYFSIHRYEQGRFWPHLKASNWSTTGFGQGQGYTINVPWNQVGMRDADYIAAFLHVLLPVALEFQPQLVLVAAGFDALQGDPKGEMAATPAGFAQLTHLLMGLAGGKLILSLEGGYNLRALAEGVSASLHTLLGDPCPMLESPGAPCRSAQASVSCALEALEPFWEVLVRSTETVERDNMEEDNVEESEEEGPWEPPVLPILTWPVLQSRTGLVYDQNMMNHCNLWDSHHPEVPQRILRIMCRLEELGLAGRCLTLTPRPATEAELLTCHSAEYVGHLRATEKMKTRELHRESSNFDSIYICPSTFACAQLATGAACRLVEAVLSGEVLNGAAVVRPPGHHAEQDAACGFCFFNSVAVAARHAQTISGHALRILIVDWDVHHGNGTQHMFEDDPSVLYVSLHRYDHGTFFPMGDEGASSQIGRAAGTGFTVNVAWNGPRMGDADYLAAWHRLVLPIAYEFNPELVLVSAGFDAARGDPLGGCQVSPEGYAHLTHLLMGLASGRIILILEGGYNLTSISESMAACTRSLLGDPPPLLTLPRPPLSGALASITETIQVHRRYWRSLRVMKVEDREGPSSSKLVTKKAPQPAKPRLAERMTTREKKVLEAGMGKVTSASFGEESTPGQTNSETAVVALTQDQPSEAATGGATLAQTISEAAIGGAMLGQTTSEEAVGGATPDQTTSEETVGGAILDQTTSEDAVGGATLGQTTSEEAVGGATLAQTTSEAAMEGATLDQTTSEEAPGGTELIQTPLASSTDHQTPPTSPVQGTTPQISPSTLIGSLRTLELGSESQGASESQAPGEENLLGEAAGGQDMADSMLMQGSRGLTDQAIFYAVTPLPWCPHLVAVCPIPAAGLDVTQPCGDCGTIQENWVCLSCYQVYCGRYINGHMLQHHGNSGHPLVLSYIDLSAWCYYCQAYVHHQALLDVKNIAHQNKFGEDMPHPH
Protocol: as §1
To evaluate the HDAC6 inhibition ability of Zeta55 in VCaP cells, the acetylation status of α-tubulin protein (a HDAC6 substrate) was assessed using western blot. […] We assessed the protein level of AR in VCaP cells.
The whole-cell extracts were prepared in lysis buffer with a protease inhibitor cocktail (Bimake), while the xenograft tissue extracts were prepared in 0.5% Nonidet P 40 Substitute solution (Biosharp) with cocktail protease inhibitor (Bimake). Each sample containing 30 μg of total protein was loaded onto 10% SDS-PAGE and electrotransferred onto polyvinylidene fluoride membranes. The membranes were blocked with 5% skimmed milk in PBST at room temperature for 2 hours and incubated with primary antibodies at 4° C overnight. After the membranes were washed with PBST three times, they were incubated with horseradish peroxidase-conjugated anti-rabbit or anti-mouse secondary antibody at room temperature for 1 hour. Chemiluminescent detection was performed with WesternBright ECL (Advansta). The immunoblots were visualized using the FluorChem FC3 system (ProteinSimple).

PSA = PSA mRNA (qRT-PCR) and protein (Western blot) expression in VCaP cells; assay type: cell-based; conditions: 10 nM DHT, 24 hours
Protocol: as §1, §2, §3

- α-tubulin acetylation (HDAC6): did not
SMILES: CNC(=O)c1ccc(N2C(=S)N(c3ccc(C#N)c(C(F)(F)F)c3)C(=O)C2(C)C)cc1F [MDV3100, reference compound]
- oral bioavailability [1]: 97%
- plasma half-life [1]: 8.56 h
- DHT-induced endogenous mRNA and protein expression of TMPRSS2 (TMPRSS2): significantly suppressed
- DHT-induced endogenous mRNA and protein expression of PSA (PSA): significantly suppressed
